Patent publication US12648983B2 (U.S. NUTRACEUTICALS, INC., priority 2021, dated 2026)

What was measured:
androgenic alopecia = conditions: 1 milligram per day, 24 months, 100 men; cited from earlier work
5α-Reductase Type 2 = molecular target: T1, 5α-Reductase Type 2 (Homo sapiens, UniProt P31213); test: inhibition of 5α-Reductase Type 2 enzyme (Inhibition Experiments 1 and 2); assay type: biochemical
T1 sequence (P31213 1-254): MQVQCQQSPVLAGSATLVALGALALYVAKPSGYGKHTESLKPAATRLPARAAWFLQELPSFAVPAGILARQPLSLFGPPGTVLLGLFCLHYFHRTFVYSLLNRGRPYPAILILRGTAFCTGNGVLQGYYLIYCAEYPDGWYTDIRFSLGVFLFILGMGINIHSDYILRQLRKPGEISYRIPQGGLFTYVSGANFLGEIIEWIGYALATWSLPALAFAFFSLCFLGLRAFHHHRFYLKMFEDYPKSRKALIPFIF
Text: (§1) The different free fatty acids of medium and long saturated chains and long unsaturated chains are shown, together with esterified fatty acids, oxidized fatty acids, fatty alcohols, phytosterols, and other components. The magnitude of the activity is designated by “none,” “moderate” or “very active” (FIG. 3). The various constituents shown in the table of FIG. 2 are also shown and listed as free fatty acid molecules with: a) medium, saturated chains, b) long, saturated chains, and c) long unsaturated chains. There are esterified fatty acids, oxidized fatty acids, and fatty alcohols. These tables support other evidence that the five active free fatty acids for prostate and hair health are lauric, myristic, oleic, linoleic and linolenic free fatty acids.
Data are shown in the graphs and bar charts of FIGS. 5 and 6 where data are reported as the effectiveness to inhibit enzyme activity (IC50). […]
Inhibition Experiment 2 shown in FIG. 6 determined the possible impact of Permixon® product matrix (PEG) on an in vitro assay and the pegylated and conventional ultra-high purity supercritical CO2 extract having the PEG matrix (U4602-PEG) was compared to the commercially available Permixon® and the conventional unpegylated product (U4602) for their ability to inhibit the 5α-Reductase 2 enzyme. […]

hair growth = conditions: normal shaved mice, after about 20 days; cited from earlier work
5α-Reductase Type 1 = molecular target: T2, 5α-Reductase Type 1 (Homo sapiens, UniProt P18405); test: inhibition of 5α-Reductase Type 1 enzyme; assay type: biochemical
T2 sequence (P18405 1-259): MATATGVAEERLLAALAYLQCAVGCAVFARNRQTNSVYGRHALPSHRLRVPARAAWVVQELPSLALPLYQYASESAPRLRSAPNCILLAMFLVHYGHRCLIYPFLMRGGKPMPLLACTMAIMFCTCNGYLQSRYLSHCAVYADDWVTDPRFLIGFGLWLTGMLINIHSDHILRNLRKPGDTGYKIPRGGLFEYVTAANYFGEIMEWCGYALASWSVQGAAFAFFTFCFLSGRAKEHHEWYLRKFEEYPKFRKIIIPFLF
Text: as §1
Reference is now made to FIGS. 7B and 7C showing the use of a supercritical CO2 extracted LSESr and Permixon®.

In the case of `CC(C)(C)NC(=O)[C@H]1CC[C@H]2[C@@H]3CC[C@H]4NC(=O)C=C[C@]4(C)[C@H]3CC[C@]12C` [finasteride], the “men who noted an improvement” value (androgenic alopecia) is listed as 68%.
In the case of `CCCCC/C=C\C/C=C\CCCCCCCC(=O)O` [linoleic acid], the “effectiveness for 5α-Reductase-2 (in words)” value (5α-Reductase Type 2) is listed as “beneficial for both” and the hair growth (hair growth) is listed as “about 100%”.
In the case of `CCCCCCCC/C=C\CCCCCCCC(=O)O` [oleic acid], the “effectiveness for 5α-Reductase-2 (in words)” value (5α-Reductase Type 2) was “not as much” and the “effectiveness for 5α-Reductase-1 (in words)” value (5α-Reductase Type 1) was “especially effective”.
